Paper PMC5371667, “Targeting Bile Acid Receptors: Discovery of a Potent and Selective Farnesoid X Receptor Agonist as a New Lead in the Pharmacological Approach to Liver Diseases” (Frontiers in Pharmacology, 2017)

Legend:
[1] = system: FXR target genes in liver; experiment: Hepatic FXR target gene expression in C57BL6 mice (RT-PCR); type: in vivo; conditions: 50 mg/kg per os, p < 0.05 versus control mice
Procedure: HepG2 cells were plated at 1 × 10^6 cells/well in a six well plate. After an overnight incubation, cells were starved and then stimulated for 18 h with compound 2 at 1 μM. Total RNA was isolated from HepG2 cells or liver tissues using the TRIzol reagent according to the manufacturer’s specifications (Invitrogen). One microgram of purified RNA was treated with DNase-I and reverse transcribed with Superscript II (Invitrogen). For Real Time PCR, 10 ng template was dissolved in 25 μL containing 200 nmol/L of each primer and 12.5 μL of 2× SYBR FAST Universal ready mix (Invitrogen). All reactions were performed in triplicate, and the thermal cycling conditions were as follows: 2 min at 95°C, followed by 40 cycles of 95°C for 20 s and 60°C for 30 s in StepOnePlus (Applied Biosystems). The relative mRNA expression was calculated accordingly to the Ct method. Primers were designed using the software PRIMER3^1 using published data obtained from the NCBI database. Forward and reverse primer sequences were the following: human GAPDH, […] and […]; human BSEP, […] and […]; human OSTα, […] and […]; human SHP, […] and […]; mouse NTCP, […] and […]; mouse CYP7A1, […] and […]; mouse FGF21, […] and […]; mouse GAPDH, […] and […]; mouse BSEP, […] and […]; mouse OSTα, […] and […]; mouse SHP, […] and […].
C57BL6 male mice were from Harlan Nossan (Udine, Italy). The colonies were maintained in the animal facility of University of Perugia. Mice were housed under controlled temperatures (22 °C) and photoperiods (12:12-hour light/dark cycle), allowed unrestricted access to standard mouse chow and tap water and allowed to acclimate to these conditions for at least 5 days before inclusion in an experiment. A total number of eight mice were used in this study. The study was conducted in agreement with the Italian law and the protocol was approved by Ethical Committee of University of Perugia and by a National Committee of Ministry of Health (permission N° 42/2014 B). The health and body conditions of the animals were monitored daily by the veterinarian in the animal facility. At the day of sacrifice mice were deeply anesthetized with a mixture of […]/xylazine at a dose of 50 mg/Kg.

PPARγ = biological target: T1, PPARγ (Homo sapiens, UniProt P37231); experiment: PPARγ transactivation on HepG2 cells (GAL4 LBD reporter); type: cell-based; conditions: 10 μM
T1 construct: expressed in transfected cells; host or cells: HepG2
T1 sequence (P37231 238-503 limits assumed): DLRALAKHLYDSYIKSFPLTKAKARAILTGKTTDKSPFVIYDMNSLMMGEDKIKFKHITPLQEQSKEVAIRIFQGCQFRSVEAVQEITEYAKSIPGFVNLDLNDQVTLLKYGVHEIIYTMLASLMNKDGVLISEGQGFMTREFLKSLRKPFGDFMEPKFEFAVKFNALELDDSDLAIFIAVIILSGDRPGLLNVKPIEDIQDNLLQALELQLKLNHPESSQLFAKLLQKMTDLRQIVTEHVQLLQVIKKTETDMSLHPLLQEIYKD
Procedure: To evaluate LXRα and LXRβ mediated transactivation, HepG2 cells were transfected with 200 ng of the reporter vector p(UAS)5XTKLuc, 100 ng of a vector containing the ligand binding domain of LXRα or LXRβ cloned upstream of the GAL4-DNA binding domain (i.e., pSG5-LXRαLBD-GAL4DBD or pSG5-LXRβLBD-GAL4DBD) and 100 of pGL4.70 Renilla. At 24 h post-transfection, cells were stimulated 18 h with 10 μM compound 2 and GW3965 (GW, 10 μM) was used as positive control. To investigate the PPARα and PPARγ mediated transactivation, HepG2 cells were transiently transfected with 200 ng reporter vector p(UAS)9XTKLuc, 100 ng of a vector containing the ligand binding domain of PPARα or PPARγ cloned upstream of the GAL4-DNA binding domain (i.e., pSG5- PPARαLBD-GAL4DBD or pSG5- PPARγLBD-GAL4DBD) and 100 of pGL4.70 Renilla. For PPARα transactivation, cells were stimulated with 10 μM compound 2 and gemfibrozil (GEM, 10 μM) was used as positive control. For PPARγ transactivation, cells were stimulated with 10 μM compound 2 and rosiglitazone (ROSI, 100 nM) was used as a positive control. Luciferase activities were assayed and normalized with Renilla activities.

[2] = system: bile acid pool in plasma and gallbladder; experiment: Bile acid pool in C57BL6 mice (LC-MS/MS)
Procedure: At the day of sacrifice livers, gallbladders, blood and feces were collected from mice for further analysis.
The stock solutions of the individual tauro-conjugated and un-conjugated BAs were prepared separately in methanol at a concentration of 1 mg/mL. All stock solutions were stored at –20°C. Calibration standards were prepared by combining appropriate volumes of each BA stock solution and methanol. […] Mice serum sample aliquots of 20 μL were mixed with 80 μL of CH3OH, shaken continuously, vortexed and, after centrifugation at 16000 g for 10 min, the clear supernatant was transferred to a new vial, snap frozen and lyophilized. The sample was then re-dissolved in 40% water/ 60% MeOH with 0.1% formic acid and ammonium acetate 5 mM. […] For gallbladder, 10 mg of lyophilized gallbladder were manually pestle using a mortar and dissolved in 1 mL CH3OH. After centrifugation at 16000 g for 10 min, 500 μL of supernatants were lyophilized and reconstituted in 100 μL of 40% water/60% MeOH with 0.1% formic acid and ammonium acetate 5 mM.
For LC-MS/MS analysis, chromatographic separation was carried out on the HPLC-MS system Q-TRAP 6500 LC-MS/MS System from AB Sciex equipped with Shimadzu LC-20A LC and AutoSampler system. The mixture was separated on a Synergi Fusion RP 4 m from Phenomenex (150 mm × 2.00 mm).
Tauro-conjugated and non-conjugated BAs were separated at a flow rate of 200 μL/min using a methanol–aqueous ammonium acetate (NH4OAc) gradient. Mobile phase A was water containing 5 mM ammonium acetate and 0.1% formic acid, mobile phase B was methanol, containing ammonium acetate at 5 mM and 0.1% formic acid. […] ESI was performed in negative ion mode and the ion source temperature was set at 280°C. The tune page parameters were automatically optimized injecting taurocholic acid at 1 μM as standard.

GST-fusion FXR-LBD = biological target: T2, GST-fusion FXR-LBD (Homo sapiens, UniProt Q96RI1); experiment: Alpha Screen coactivator (SRC-1 peptide) recruitment assay; type: biochemical
T2 construct: 10 nM of purified GST-tagged FXR-LBD protein
T2 sequence (Q96RI1 262-486 limits assumed): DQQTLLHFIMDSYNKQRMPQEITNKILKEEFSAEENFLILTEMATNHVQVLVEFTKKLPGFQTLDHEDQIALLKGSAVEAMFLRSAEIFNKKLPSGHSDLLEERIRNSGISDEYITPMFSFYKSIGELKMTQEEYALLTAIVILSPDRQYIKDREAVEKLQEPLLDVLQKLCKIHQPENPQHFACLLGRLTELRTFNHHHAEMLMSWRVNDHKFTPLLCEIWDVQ
Procedure: Activation of FXR was determined by Alpha Screen Technology in a Coactivator Recruitment Assay. Anti-GST-coated acceptor beads were used to capture the GST-fusion FXR-LBD, whereas the biotinylated-SRC-1 peptide was captured by the streptavidin donor beads. Upon illumination at 680 nm, chemical energy is transferred from donor to acceptor beads across the complex streptavidin-donor/[…]-LBD/anti-GST-acceptor and a signal is produced. The assay was performed in white, low-volume, 384-well Optiplates (PerkinElmer) using a final volume of 25 μL containing final concentrations of 10 nM of purified GST-tagged FXR-LBD protein, 30 nM biotinylated SRC-1 peptide, 20 μg/mL anti-GST acceptor beads, and 10 μg/mL of streptavidin donor bead (PerkinElmer). The assay buffer contained 50 mM Tris (pH 7.4), 50 mM KCl and 1 mM DTT. The stimulation times with 1 μL of tested compound (dissolved in 50% DMSO/H2O) were fixed to 30 min at room temperature. The concentration of DMSO in each well was maintained at a final concentration of 2%. After the addition of the detection mix (acceptor and donor beads), the plates were incubated in the dark for 3 h at room temperature and then were read in an Envision microplate analyzer (PerkinElmer).

**Q.** With CC[C@H]1[C@@H](O)[C@@H]2[C@H](CC[C@]3(C)[C@@H]([C@H](C)CCC(=O)O)CC[C@@H]23)[C@@]2(C)CC[C@H](N=[N+]=[N-])C[C@@H]12 [compound 2, 3β-azido-6α-ethyl-7α-hydroxy-5β-cholan-24-oic acid] as the compound, how does the “relative hepatic mRNA expression of BSEP” value [1] read?
**A.** Its value is “significantly up-regulated”.

**Q.** What about the “relative hepatic mRNA expression of CYP7A1” value [1] of the same compound?
**A.** Its value is “downregulated”.

**Q.** And the “relative hepatic mRNA expression of FGF21” value [1]?
**A.** The value was “significantly up-regulated”.

**Q.** What about the “relative hepatic mRNA expression of OSTα” value [1] of the same compound?
**A.** Its value is “significantly up-regulated”.

**Q.** And the “relative hepatic mRNA expression of SHP” value [1]?
**A.** Its value is “significantly up-regulated”.

**Q.** And the PPARγ transactivation (PPARγ)?
**A.** The PPARγ transactivation was “unable in inducing”.

**Q.** And the “blood level of tHCA” value ([2]; 50 mg/kg)?
**A.** Its value is “significantly reduced”.

**Q.** And the “level of tauro-deoxycholic acid (tDCA)” value ([2]; 50 mg/kg oral)?
**A.** The value was “reduction”.

**Q.** And the “plasmatic and gallbladder levels of tauro-cholic acid (tCA)” value ([2]; 50 mg/kg oral)?
**A.** Its value is “significantly reduced”.

**Q.** What about the “plasmatic and gallbladder levels of tauro-muricholic acid (tMu)” value ([2]; 50 mg/kg oral) of the same compound?
**A.** The value was “significantly reduced”.

**Q.** What about the EC50 (GST-fusion FXR-LBD; recruitment of SRC-1 co-activator peptide, Alfa Screen, Table 1) of the same compound?
**A.** Its EC50 is 610 ± 90 nM.

**Q.** What about the Efficacy (GST-fusion FXR-LBD; recruitment of SRC-1 co-activator peptide, Alfa Screen, Table 1, 6-ECDCA = 100) of the same compound?
**A.** The Efficacy was 90.

**Q.** What about the “efficacy respect to 6-ECDCA” value (GST-fusion FXR-LBD; recruitment of SRC-1 peptide) of the same compound?
**A.** Its value is 90%.
